Laboratory results as given in US10039752B2 (Cipla Limited, priority 2016, dated 2018).
Where two headings read alike, the source gives them in different places.

How the values were obtained:
[1] = tested on: human pancreatic cancer xenografts (PDX model PAXF 546); assay: In vivo animal efficacy study; set-up: species or system Nude mice; conditions: for Mean Tumor volume: methazolamide 60 mg/kg p.o., gemcitabine 50 mg/kg i.v. Q7D, in mm³; for tumor growth inhibition: methazolamide 60 mg/kg orally, gemcitabine 50 mg/kg i.v.
[2] = tested on: PAXF 1986L, PAXF 546L, PAXF Capan-2, and PAXF MIA-Pa-Ca-2; assay: cells; conditions: Homo sapiens, 192 h, read-out: relative IC50 values, range over four cell lines
Description: The clonogenic assay was carried out in a 96 well plate format using ultra low attachment plates. For each test cells were prepared as described above, and assay plates were prepared as follows: each test well contained a layer of semi-solid medium with tumor cells (50 μl), and a second layer of medium supernatant with or without test compounds (100 μl). […] The soft-agar layer was immediately covered with 90 μl of the same culture medium without agar. After 24 hour the test compounds were added after serial dilution in IMDM and transfer in cell culture medium, and left on the cells for the duration of the experiment (continuous exposure, 100 μL total drug overlay). Every plate included six untreated control wells and drug-treated groups in a layout as shown above. […] Within this period, ex vivo tumor growth led to the formation of colonies with a diameter of >50 μm. At the time of maximum colony formation, counts were performed with an automatic image analysis system (CellInsight NXT, Thermo Scientific). 48 hours prior to evaluation, vital colonies were stained with a sterile aqueous solution of 2-(4-iodophenyl)-3-(4-nitrophenyl)-5-phenyltetrazolium chloride (1 mg/ml, 100 μl/well).

PAXF 1986L = assay: In vitro 2-D assay (CellTiter-Blue cell viability, 96 h); type: cell-based; conditions: Homo sapiens, PAXF 1986, 96 hours treatment
Excerpt: (§1) PAXF 546L, PAXF 1986L, PAXF 1998L, PAXF 2005L and PAXF 2059L were established at Oncotest from the corresponding human patient derived xenograft. CAPAN-2, HUP-T3 and PA-TU-8902 were purchased from DSMZ (Braunschweig, Germany). PANC-1 was purchased from CLS Cell Line Services GmbH (Eppelheim, Germany). BxPC-3, HPAC and MIA-Pa-Ca-2 were purchased from ATCC (Rockville, Md., USA). Authenticity of cell lines was confirmed at the DSMZ by STR (short tandem repeat) analysis, a PCR based DNA-fingerprinting methodology. Cell lines were routinely passaged once or twice weekly and maintained in culture for up to 20 passages. All cells were grown at 37° C. in a humidified atmosphere with 5% CO2 in RPMI 1640 medium (25 mM HEPES, with L-glutamine, #FG1385, Biochrom, Berlin, Germany) supplemented with 10% (v/v) fetal calf serum (Sigma, Taufkirchen, Germany) and 0.1 mg/mL gentamicin (Life Technologies, Karlsruhe, Germany).
(§2) The CellTiter-Blue® Cell Viability Assay (#G8081, Promega) was used according to manufacturer's instructions. Briefly, cells were harvested from exponential phase cultures, counted and plated in 96-well flat-bottom microtiter plates at a cell density of 6,000-20,000 cells/well depending on the cell line's growth rate. After a 24 hours recovery period to allow the cells to resume exponential growth, test compounds were added. […] After 96 hours treatment of cells, 20 μL/well CellTiter-Blue® reagent was added. Following an incubation period of up to four hours, fluorescence (FU) was measured by using the Enspire Multimode Plate Reader (excitation λ=531 nm, emission λ=615 nm). For calculations, the mean values of duplicate/quadruplicate (untreated control) data were used. Sigmoidal concentration-response curves were fitted to the data points (T/C values) obtained for each cell line using 4 parameter non-linear curve fit (Oncotest Warehouse Software).

PAXF 1998L = assay: as above; type: cell-based; conditions: Homo sapiens, PAXF 1998, 96 hours treatment
Excerpt: as §1, §2

PAXF 2005L = assay: as above; type: cell-based; conditions: Homo sapiens, PAXF 2005, 96 hours treatment
Excerpt: as §1, §2

PAXF 2059L = assay: as above; type: cell-based; conditions: Homo sapiens, PAXF 2059, 96 hours treatment
Excerpt: as §1, §2

PAXF 546L = assay: as above; type: cell-based; conditions: Homo sapiens, PAXF 546, 96 hours treatment
Excerpt: as §1, §2

PAXF BxPC-3 [3] = assay: as above; type: cell-based; conditions: Homo sapiens, PAXF BxPC-3, 96 hours treatment
Excerpt: as §1, §2

PAXF CAPAN-2 [4] = assay: as above; type: cell-based; conditions: Homo sapiens, PAXF CAPAN-2, 96 hours treatment
Excerpt: as §1, §2

PAXF HPAC [5] = assay: as above; type: cell-based; conditions: Homo sapiens, 96 hours treatment
Excerpt: as §1, §2

PAXF HUP-T3 = assay: as above; type: cell-based; conditions: Homo sapiens, PAXF HUP-T3, 96 hours treatment
Excerpt: as §1, §2

PAXF PA-TU-8902 [6] = assay: as above; type: cell-based; conditions: Homo sapiens, PaTu 8902, PAXF PA-TU-8902, 96 hours treatment
Excerpt: as §1, §2

PAXF PANC-1 [7] = assay: as above; type: cell-based; conditions: Homo sapiens, PAXF PANC-1, 96 hours treatment
Excerpt: as §1, §2

PAXF MIA-Pa-Ca-2 [8] = assay: cells; conditions: Homo sapiens, MIA PaCa-2, 96 h
Excerpt: as §1, §2

[9] = tested on: twelve selected human pancreatic cancer cell lines; assay: cells; conditions: for IC50: Homo sapiens, Pancreatic cancer cell
Excerpt: as §1, §2

PAXF 1982 = assay: In vitro 3D clonogenic assay; type: cell-based; conditions: Homo sapiens
Excerpt: (§3) Cell lines were routinely passaged one or twice weekly.

PAXF 1986 = assay: In vitro 3D clonogenic assay; type: cell-based; conditions: Homo sapiens
Excerpt: as §3

PAXF 2005 = assay: In vitro 3D clonogenic assay; type: cell-based; conditions: Homo sapiens
Excerpt: as §3

PAXF 2059 = assay: In vitro 3D clonogenic assay; type: cell-based; conditions: Homo sapiens
Excerpt: as §3

PAXF 546 = assay: In vitro 3D clonogenic assay; type: cell-based; conditions: Homo sapiens
Excerpt: as §3

PAXF BxPC-3 [10] = assay: In vitro 3D clonogenic assay; type: cell-based; conditions: Homo sapiens
Excerpt: as §3

PAXF CAPAN-2 [11] = assay: In vitro 3D clonogenic assay; type: cell-based; conditions: Homo sapiens
Excerpt: as §3

PAXF HPAC [12] = assay: In vitro 3D clonogenic assay; type: cell-based; conditions: Homo sapiens
Excerpt: as §3

PAXF PA-TU-8902 [13] = assay: In vitro 3D clonogenic assay; type: cell-based; conditions: Homo sapiens
Excerpt: as §3

PAXF PANC-1 [14] = assay: In vitro 3D clonogenic assay; type: cell-based; conditions: Homo sapiens
Excerpt: as §3

PAXF MIA-Pa-Ca-2 [15] = assay: cells; conditions: Homo sapiens
Description: as §3
Tumor xenografts (patient-derived, as well as cell line-derived xenografts) were passaged as subcutaneous xenografts in NMRI nu/nu mice. […] The percentage of viable cells was determined in a Neubauer-hemocytometer using trypan blue exclusion. Aliquots of the cells were frozen down, and stored in liquid nitrogen. On each day of an experiment, a frozen aliquot of tumor cells was thawed and used for preparation of assay plates.

[16] = tested on: 11 human tumor xenograft-derived cell suspensions or tumor cell lines of pancreatic cancer; assay: In vitro 3D clonogenic assay, whole panel (geometric mean); type: cell-based
Excerpt: as §3

`Nc1ccn([C@@H]2O[C@H](CO)[C@@H](O)C2(F)F)c(=O)n1` [Gemcitabine, gemcitabine] was tested, and the “Mean Tumor volume” value ([1]; day 1) was 119.84, the “Mean Tumor volume” value ([1]; day 3) was 172.26 and the “Mean Tumor volume” value ([1]; day 9) was 214.28. For the same compound, the “Mean Tumor volume” value ([1]; day 12) was 262.19, the “Mean Tumor volume” value ([1]; day 15) was 312.84 and the “Mean Tumor volume” value ([1]; day 18) was 334.59. For the same compound, the “Mean Tumor volume” value ([1]; day 21) was 382.57, the “Mean Tumor volume” value ([1]; day 24) was 454.56 and the “Mean Tumor volume” value ([1]; day 28) was 592.69. For the same compound, the “Mean Tumor volume” value ([1]; day 31) was 648.88, the “Mean Tumor volume” value ([1]; day 34) was 696.91 and the tumor growth inhibition [1] was 61%. It also gave an IC50 [2] of 0.013 to 0.062 µM.
`CC(=O)N=c1sc(S(N)(=O)=O)nn1C` [Methazolamide, N-[5-(aminosulfonyl)-3-methyl-1,3,4-thiadiazol-2(3H)-ylidene]acetamide] gave an IC50 (PAXF 1986L; read-out: Absolute IC50) of 1850 µM, an IC50 (PAXF 1986L; read-out: Relative IC50) of 1670 µM and an IC50 (PAXF 1998L; read-out: Absolute IC50) of 2510 µM. It also gave an IC50 (PAXF 1998L; read-out: Relative IC50) of 2230 µM, an IC50 (PAXF 2005L; read-out: Absolute IC50) of 1840 µM and an IC50 (PAXF 2005L; read-out: Relative IC50) of 1580 µM. For the same compound, the IC50 (PAXF 2059L; read-out: Absolute IC50) was 2040 µM, the IC50 (PAXF 2059L; read-out: Relative IC50) was 1790 µM and the IC50 (PAXF 546L; read-out: Absolute IC50) was 2320 µM. The IC50 (PAXF 546L; read-out: Relative IC50) was 3050 µM, the IC50 (PAXF BxPC-3 [3]; read-out: Absolute IC50) was 1960 µM and the IC50 (PAXF BxPC-3 [3]; read-out: Relative IC50) was 2340 µM. It also gave an IC50 (PAXF CAPAN-2 [4]; read-out: Absolute IC50) of 2030 µM, an IC50 (PAXF CAPAN-2 [4]; read-out: Relative IC50) of 2040 µM and an IC50 (PAXF HPAC [5]; read-out: Absolute IC50) of 5350 µM. The IC50 (PAXF HPAC [5]; read-out: Relative IC50) was 5510 µM, the IC50 (PAXF HUP-T3; read-out: Absolute IC50) was 726 µM and the IC50 (PAXF HUP-T3; read-out: Relative IC50) was 711 µM. The IC50 (PAXF PA-TU-8902 [6]; read-out: Absolute IC50) was 1030 µM, the IC50 (PAXF PA-TU-8902 [6]; read-out: Relative IC50) was 1130 µM and the IC50 (PAXF PANC-1 [7]; read-out: Absolute IC50) was 1540 µM. It also gave an IC50 (PAXF PANC-1 [7]; read-out: Relative IC50) of 1590 µM, an IC50 (PAXF MIA-Pa-Ca-2 [8]; read-out: Absolute IC50) of 1520 µM and an IC50 (PAXF MIA-Pa-Ca-2 [8]; read-out: Relative IC50) of 1760 µM. The “activity, shape of concentration-effect curves” value ([9]; 2-D, all cell lines tested) was “concentration-dependent activity with sigmoidal concentration-effect curves”, the IC50 ([9]; read-out: Absolute IC50, Geometric Mean) was 1840 µM and the IC50 ([9]; read-out: Individual IC50 values, range over cell lines) was 726 to 5350 µM. For the same compound, the IC50 ([9]; read-out: Relative IC50, Geometric Mean) was 1880 µM, the IC50 (PAXF 1982; read-out: Absolute IC50) was 703 µM and the IC50 (PAXF 1982; read-out: Relative IC50) was 725 µM. The IC50 (PAXF 1986; read-out: Absolute IC50) was 464 µM, the IC50 (PAXF 1986; read-out: Relative IC50) was 486 µM and the IC50 (PAXF 2005; read-out: Absolute IC50) was 523 µM. The IC50 (PAXF 2005; read-out: Relative IC50) was 603 µM, the IC50 (PAXF 2059; read-out: Absolute IC50) was 820 µM and the IC50 (PAXF 2059; read-out: Relative IC50) was 754 µM. It also gave an IC50 (PAXF 546; PAXF546, read-out: Absolute IC50) of 346 µM, an IC50 (PAXF 546; PAXF546, read-out: Relative IC50) of 336 µM and an IC50 (PAXF BxPC-3 [10]; read-out: Absolute IC50) of 837 µM. For the same compound, the IC50 (PAXF BxPC-3 [10]; read-out: Relative IC50) was 808 µM, the IC50 (PAXF CAPAN-2 [11]; read-out: Absolute IC50) was 568 µM and the IC50 (PAXF CAPAN-2 [11]; read-out: Relative IC50) was 620 µM. The IC50 (PAXF HPAC [12]; read-out: Absolute IC50) was 1360 µM, the IC50 (PAXF HPAC [12]; read-out: Relative IC50) was 1090 µM and the IC50 (PAXF PA-TU-8902 [13]; PaTu 8902, read-out: Absolute IC50) was 2110 µM. It also gave an IC50 (PAXF PA-TU-8902 [13]; PaTu 8902, read-out: Relative IC50) of 2580 µM, an IC50 (PAXF PANC-1 [14]; read-out: Absolute IC50) of 1760 µM and an IC50 (PAXF PANC-1 [14]; read-out: Relative IC50) of 1820 µM. It also gave an IC50 (PAXF MIA-Pa-Ca-2 [15]; MIA PaCa-2, read-out: Absolute IC50) of 533 µM, an IC50 (PAXF MIA-Pa-Ca-2 [15]; MIA PaCa-2, read-out: Relative IC50) of 489 µM and an IC50 ([16]; read-out: Absolute IC50, Geometric mean) of 777 µM. The IC50 ([16]; read-out: Relative IC50, Geometric mean) was 783 µM, the “Mean Tumor volume” value ([1]; day 1) was 94.47 and the “Mean Tumor volume” value ([1]; day 3) was 121.60. The “Mean Tumor volume” value ([1]; day 9) was 151.64, the “Mean Tumor volume” value ([1]; day 12) was 189.82 and the “Mean Tumor volume” value ([1]; day 15) was 253.64. The “Mean Tumor volume” value ([1]; day 18) was 341.73, the “Mean Tumor volume” value ([1]; day 21) was 470.79 and the “Mean Tumor volume” value ([1]; day 24) was 583.90. The “Mean Tumor volume” value ([1]; day 28) was 718.08, the “Mean Tumor volume” value ([1]; day 31) was 836.82 and the “Mean Tumor volume” value ([1]; day 34) was 916.02. The tumor growth inhibition [1] was “up to 50%” and the IC50 [2] was 297 to 806 µM.
